A word on the melting point: it is the temperature of the solid-liquid transition.

36 compounds from US9833423B2 (KOREA RESEARCH INSTITUTE OF CHEMICAL TECHNOLOGY, priority 2011, dated 2017) can be followed below.

One series in a line: in vitro. As to conditions: human.

Each structure is given as a SMILES string. ≈ marks a conversion by molar mass, not a printed value.

Take `O=C1c2ccccc2C(=O)C1(O)c1ncc(Cl)cc1O` [Example 73, 2-(5-Chloro-3-hydroxypyridin-2-yl)-2-hydroxy-1H-inden-1,3(2H)-dione]: the CC50 in “in vitro” (CC50) was > 100 µg/mL. As to `CCOC(=O)NC1(c2ccc(C(C)C)cc2OC)C(=O)c2ccccc2C1=O` [Example 64, Ethyl 2-(4-isopropyl-2-methoxyphenyl)-1,3-dioxo-2,3-dihydro-1H-inden-2-ylcarbamate], the melting point lay in the range of 149 to 150 °C. In the series “in vitro” (CC50), this compound displayed a CC50 of 87.8 µg/mL (≈ 230 µM). As to `COc1ccc2c(c1)C(=O)C(OC(C)=O)(c1ccc(C(C)C)cc1OC(C)=O)C2=O` (stereo not drawn) [Example 27, 2-(2-Acetoxy-4-isopropylphenyl)-5-methoxy-1,3-dioxo-2,3-dihydro-1H-inden-2-yl acetate], the melting point was 146 to 148 °C. Moreover, the CC50 in “in vitro” (CC50) turned out to be 9.5 µg/mL. As for `COc1cc(C(C)C)ccc1C1(O)C(=O)c2cccc(N)c2C1=O` (stereo not drawn) [Example 41, 4-Amino-2-hydroxy-2-(4-isopropyl-2-methoxyphenyl)-2H-inden-1,3-dione], the melting point was 219 to 220 °C.

Compound `COc1cc(C(C)C)ccc1C1(NC(N)=O)C(=O)c2ccccc2C1=O` [Example 61, 1-(2,3-Dihydro-2-(4-isopropyl-2-methoxyphenyl)-1,3-dioxo-1H-inden-2-yl)urea] registered a melting point of 272 to 274 °C. Besides, in the series “in vitro” (CC50), the CC50 was > 117 µg/mL. The corresponding values for `COc1cc(C(C)C)ccc1C1(NC(=O)c2ccccc2)C(=O)c2ccccc2C1=O` [Example 55, N-(2-(4-Isopropyl-2-methoxyphenyl)-1,3-dioxo-2,3-dihydro-1H-inden-2-yl)benzamide] are 106 to 108 °C and > 117 µg/mL.

On to `CC(=O)Oc1cc(C)c(C)c(C)c1C1(OC(C)=O)C(=O)c2ccccc2C1=O` [Example 16, 2-(2-Acetoxy-1,3-dioxo-2,3-dihydro-1H-inden-2-yl)-3,4,5-trimethylphenyl acetate], for which the melting point lay within 238 to 242 °C. Further, the CC50 in “in vitro” (CC50) turned out to be 8.87 µg/mL.

Compound `COC1(c2ccc(C(C)C)cc2OCc2ccccc2)C(=O)c2ccccc2C1=O` [Example 25, 2-(2-Benzyloxy-4-isopropyl-phenyl)-2-methoxy-indan-1,3-dione] yielded a melting point of 140 to 144 °C. Further, in “in vitro” (CC50), the CC50 is > 100 µg/mL. The corresponding values for `CCN(CC)C(=O)Oc1cc(C(C)C)ccc1C1(O)C(=O)c2ccccc2C1=O` [Example 34, 2-(2-Hydroxy-1,3-dioxo-2,3-dihydro-1H-inden-2-yl)-5-isopropylphenyl diethylcarbamate] are 103 to 106 °C and 46.2 µg/mL (≈ 117 µM).

In the case of `CCC(C)c1ccc(OC(C)=O)c(C2(OC(C)=O)C(=O)c3ccccc3C2=O)c1` (stereo not drawn) [Example 13, 2-(2-Acetoxy-1,3-dioxo-2,3-dihydro-1H-inden-2-yl)-4-sec-butylphenyl acetate], the melting point is 118 to 120 °C. Moreover, the CC50 in the series “in vitro” (CC50) was 7.93 µg/mL. The corresponding values for `Cc1cc(C2(O)C(=O)c3ccccc3C2=O)cc(C)c1O` [Example 26, 2-Hydroxy-2-(4-hydroxy-3,5-dimethyl-phenyl)-indan-1,3-dione] are 210 to 213 °C and > 100 µg/mL. For `COc1cc(C(C)C)ccc1C1(N)C(=O)c2ccccc2C1=O` [Example 53, 2-Amino-2-(4-isopropyl-2-methoxyphenyl)-2H-inden-1,3-dione] the same measures were 164 to 166 °C and 10.2 µg/mL (≈ 33 µM).

`COc1cc(C(C)C)ccc1C1(N)C(=O)c2cccc(NC(C)=O)c2C1=O` (stereo not drawn) [Example 66, N-(2-Amino-2-(4-isopropyl-2-methoxyphenyl)-1,3-dioxo-2,3-dihydro-1H-inden-4-yl)acetamide] came in with a melting point of 183 to 185 °C. The CC50 in the series “in vitro” (CC50) was 26.7 µg/mL (≈ 72.8 µM). For `CC(=O)Oc1cc(C(C)C)ccc1C1(OC(C)=O)C(=O)c2cccc([N+](=O)[O-])c2C1=O` (stereo not drawn) [Example 37, Acetic acid 2-(2-acetoxy-4-isopropyl-phenyl)-4-nitro-1,3-dioxo-indan-2-yl ester] the same measures were 94 to 98 °C and 62.7 µg/mL (≈ 147 µM).

As to `CC(=O)Oc1ccc([N+](=O)[O-])cc1C1(OC(C)=O)C(=O)c2ccccc2C1=O` [Example 9, 2-(2-Acetoxy-1,3-dioxo-2,3-dihydro-1H-inden-2-yl)-4-nitrophenyl acetate], the melting point lay in the range of 163 to 167 °C. In addition, the CC50 in “in vitro” (CC50) is > 100 µg/mL. For `CC(=O)Oc1c(Cl)cc(Cl)cc1C1(OC(C)=O)C(=O)c2ccccc2C1=O` [Example 5, 2-(2-Acetoxy-1,3-dioxo-2,3-dihydro-1H-inden-2-yl)-4,6-dichlorophenyl acetate] the same measures were 178 to 180 °C and 26 µg/mL. For `CCC(C)(C)c1ccc(OC(C)=O)c(C2(OC(C)=O)C(=O)c3ccccc3C2=O)c1` [Example 17, 2-(2-Acetoxy-1,3-dioxo-2,3-dihydro-1H-inden-2-yl)-4-tert-pentylphenyl acetate], the melting point was in the range of 146 to 151 °C. For the same compound, in “in vitro” (CC50), the CC50 is 9.3 µg/mL. Regarding `CC(=O)Oc1ccc(C)nc1C1(OC(C)=O)C(=O)c2ccccc2C1=O` [Example 71, 2-(2-Acetoxy-1,3-dioxo-2,3-dihydro-1H-inden-2-yl)-6-methylpyridin-3-yl acetate], in “in vitro” (CC50), the CC50 was > 100 µg/mL. Regarding `CC(C)c1ccc(C2(O)C(=O)c3ccccc3C2=O)c(OCc2ccccc2)c1` [Example 24, 2-(2-Benzyloxy-4-isopropyl-phenyl)-2-hydroxy-indan-1,3-dione], the melting point lay in the range of 197 to 199 °C. For the same compound, the CC50 in “in vitro” (CC50) is > 100 µg/mL. In “in vitro” (Picorna-virus CC50), `CC(=O)Nc1cc(C)c(C)cc1C1(O)C(=O)c2ccccc2C1=O` [Example 86, N-(2-(2-Hydroxy-1,3-dioxo-2,3-dihydro-1H-inden-2-yl)-4,5-dimethylphenyl)acetamide] had a CC50 of 4.63 µg/mL (≈ 14.3 µM). `CC(=O)Oc1ccc(-c2ccccc2)cc1C1(OC(C)=O)C(=O)c2ccccc2C1=O` [Example 10, 3-(2-Acetoxy-1,3-dioxo-2,3-dihydro-1H-inden-2-yl)biphenyl-4-yl acetate] gave a melting point of 196 to 198 °C. In the series “in vitro” (CC50), this compound gave a CC50 of 7.85 µg/mL. For `COC1(c2ccc(C(C)C)cc2O)C(=O)c2ccccc2C1=O` [Example 28, 2-(2-Hydroxy-4-isopropylphenyl)-2-methoxy-1H-inden-1,3(2H)-dione] the same measures were 272 to 274 °C and 9.2 µg/mL (≈ 29.6 µM). For `COc1cc(C(C)C)ccc1C1(O)C(=O)c2ccc(N)c(NC(C)=O)c2C1=O` (stereo not drawn) [Example 45, N-(5-Amino-2-hydroxy-2-(4-isopropyl-2-methoxyphenyl)-1,3-dioxo-2,3-dihydro-1H-inden-4-yl)acetamide] the same measures were 124 to 131 °C and > 117 µg/mL. For `COc1cc(C(C)C)ccc1C1(O)C(=O)c2ccc(N)c(N)c2C1=O` (stereo not drawn) [Example 47, 4,5-Diamino-2-hydroxy-2-(4-isopropyl-2-methoxyphenyl)-2H-inden-1,3-dione] the same measures were 272 to 274 °C and 50.9 µg/mL (≈ 150 µM). Turning to `COc1cc(NC(=O)C(C)C)c(C2(O)C(=O)c3cc(OC)c(OC)cc3C2=O)cc1OC` [Example 108, N-[2-(2-Hydroxy-5,6-dimethoxy-1,3-dioxo-indan-2-yl)-4,5-dimethoxy-phenyl]-isobutyramide], the CC50 in “in vitro” (Picorna-virus CC50) is > 100 µg/mL. For the compound `CCOC(=O)Cc1cc(OC)c(OC(C)=O)c(C2(OC(C)=O)C(=O)c3ccccc3C2=O)c1` [Example 1, Ethyl 2-(4-acetoxy-3-(2-acetoxy-1,3-dioxo-2,3-dihydro-1H-inden-2-yl)-5-methoxyphenyl)acetate], the melting point was 102 to 107 °C. The CC50 in “in vitro” (CC50) is > 100 µg/mL. As for `COc1cc(NC(=O)C(C)C)c(C2(O)C(=O)c3cccc(N)c3C2=O)cc1OC` (stereo not drawn) [Example 107, N-[2-(4-Amino-2-hydroxy-1,3-dioxo-indan-2-yl)-4,5-dimethoxy-phenyl]-isobutyramide], the CC50 in the series “in vitro” (Picorna-virus CC50) was > 100 µg/mL. On to `COc1cc(C(C)C)ccc1C1(N=[N+]=[N-])C(=O)c2cccc([N+](=O)[O-])c2C1=O` (stereo not drawn) [Example 40, 2-Azido-2-(4-isopropyl-2-methoxyphenyl)-4-nitro-2H-inden-1,3-dione], for which, in “in vitro” (CC50), the CC50 stood at 53.2 µg/mL (≈ 140 µM). For the compound `COc1cc(C(C)C)ccc1C1(O)C(=O)c2c(N)ccc(NC(C)=O)c2C1=O` (stereo not drawn) [Example 44, N-(7-Amino-2-hydroxy-2-(4-isopropyl-2-methoxyphenyl)-1,3-dioxo-2,3-dihydro-1H-inden-4-yl)acetamide], the CC50 in “in vitro” (CC50) was > 117 µg/mL. As to `CCCC(=O)Nc1cc(C)c(C)cc1C1(O)C(=O)c2ccccc2C1=O` [Example 89, N-(2-(2-Hydroxy-1,3-dioxo-2,3-dihydro-1H-inden-2-yl)-4,5-dimethylphenyl)butyramide], in “in vitro” (Picorna-virus CC50), the CC50 stood at 10.7 µg/mL (≈ 30.4 µM). As for `O=C1c2ccccc2C(=O)C1(O)c1cc2ncccc2cc1O` [Example 75, 2-Hydroxy-2-(6-hydroxyquinolin-7-yl)-1H-inden-1, 3(2H)-dione], in “in vitro” (CC50), the CC50 was > 100 µg/mL. In the case of `COc1cccc(C2C(=O)c3ccccc3C2=O)c1` [Example 104, 2-(3-Methoxyphenyl)-2H-inden-1,3-dione], the CC50 in the series “in vitro” (Picorna-virus CC50) is > 100 µg/mL. Same read-out and setting: to `CCc1ccc(C2(O)C(=O)c3ccccc3C2=O)c(NC(C)=O)c1` [Example 88, N-(5-Ethyl-2-(2-hydroxy-1,3-dioxo-2,3-dihydro-1H-inden-2-yl)phenyl)acetamide] belongs 4.49 µg/mL (≈ 13.9 µM); to `CCOC(=O)Oc1cc(C(C)C)ccc1C1(OC(=O)OCC)C(=O)c2cccnc2C1=O` (stereo not drawn) [Example 105, ethyl (6-(2-((ethoxycarbonyl)oxy)-4-isopropylphenyl)-5,7-dioxo-6,7-dihydro-5H-cyclopenta[b]pyridin-6-yl)carbonate], > 100 µg/mL. For the compound `COc1cc(C(C)C)ccc1C1(O)C(=O)c2cccc([N+](=O)[O-])c2C1=O` (stereo not drawn) [Example 38, 2-Hydroxy-2-(4-isopropyl-2-methoxyphenyl)-4-nitro-2H-inden-1,3-dione], the CC50 in the series “in vitro” (CC50) is > 100 µg/mL. Consider `Cc1cc(NC(=O)C(C)C)c(C2(O)C(=O)c3ccccc3C2=O)cc1C` [Example 90, N-(2-(2-Hydroxy-1,3-dioxo-2,3-dihydro-1H-inden-2-yl)-4,5-dimethylphenyl)isobutyramide], for which the CC50 in “in vitro” (Picorna-virus CC50) is 38.3 µg/mL (≈ 109 µM).
